Consider two compounds from patent US6512009B1, “Combination for the treatment of alcohol and drug dependence containing an opioid antagonist and a NMDA receptor complex modulator” (Lipha, priority 1998, dated 2003).

Like-named read-outs stand apart in the source and are kept apart here.

The test system of assay [1] is ethanol dependent rats. The assay is described as follows: Voluntary ethanol intake in ethanol dependent (alcohol preferring) rats, free choice between 10% ethanol solution and water. Type of assay: in vivo, Long Evans rats. The text has this: Ethanol dependent rats were selected as previously described (Boismare F., Daoust M., Moore N., Saligaut C., Chadelaud M., Chrétien P., Durlach J., Lhuintre J. P., A homotaurine derivative reduces the voluntary intake of ethanol by rats: are cerebral GABA receptors involved?, Pharm. Biochem. Behav., 21, 787-789, 1984).
Adult male Long Evans rats weighing 180±20 g at the beginning of the experiment were obtained from “Centre d'élevage Janvier” (France). The rats were housed in individual cages and had free access to food (UAR, France standard diet). They were kept with an ambient temperature of 21° C. and a 12 hr/12 hr light-dark photoperiod. […] Every other day, fluid intakes and body weights were measured, the drinking bottles were refilled and randomly rotated. Food consumption was also measured each week be weighting food pellets. […]
All the drugs were prepared as saline (NaCl 0.9%) solutions and animals were daily i.p. injected with: acamprosate 100 mg/kg, naltrexone 10 mg/kg, acamprosate 100 mg/kg+naltrexone 10 mg/kg or saline 1 ml/200 g body weight. […] Alcohol intakes were expressed as gram of absolute alcohol drunk per kilo of body weight per day (g.kg.d) for alcohol.
FIG. 1 represents means±sem of ethanol intake, expressed as gram of absolute alcohol during each period of pre-treatment, treatment and post-treatment in all groups of rats. […]

Assay [2] has as its system alcohol dependent patients. The conditions noted are these: used together with supportive therapy; cited from earlier work.

In the case of `CC(=O)NCCCS(=O)(=O)O` [acamprosate], in assay [1] (acamprosate 100 mg/kg daily i.p., 14 days treatment period, p<0.008), the Ethanol intake result is given as “significantly decreased”. For the compound `O=C1CC[C@@]2(O)[C@H]3Cc4ccc(O)c5c4[C@@]2(CCN3CC2CC2)[C@H]1O5` [naltrexone], the Ethanol intake entry in assay [1] is recorded as “significantly decreased”. Also, the “Rate of relapse to heavy drinking” value in assay [2] is listed as “reduce the rate of relapse to heavy drinking”.
